Experiments:
[1] = molecular target: T1, Endothelin receptor type B (Homo sapiens, UniProt P24530); assay: In vitro binding affinity in a radioligand binding experiment by competition with [125I]-labeled endothelin-1 for ETB receptor
T1 sequence (P24530 whole entry): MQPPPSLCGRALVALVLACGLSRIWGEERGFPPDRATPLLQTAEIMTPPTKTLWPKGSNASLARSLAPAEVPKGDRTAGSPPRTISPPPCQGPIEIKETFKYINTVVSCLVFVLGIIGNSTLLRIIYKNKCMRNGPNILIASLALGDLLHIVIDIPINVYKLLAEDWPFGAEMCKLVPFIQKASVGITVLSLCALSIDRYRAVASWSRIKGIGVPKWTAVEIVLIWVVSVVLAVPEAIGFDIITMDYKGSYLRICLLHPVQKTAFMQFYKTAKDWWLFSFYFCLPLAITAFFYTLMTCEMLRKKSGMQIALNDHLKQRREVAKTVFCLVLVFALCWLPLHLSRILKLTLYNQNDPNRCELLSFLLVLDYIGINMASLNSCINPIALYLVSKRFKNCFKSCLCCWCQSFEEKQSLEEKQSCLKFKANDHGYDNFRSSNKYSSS

Endothelin-1 receptor = molecular target: T2, Endothelin-1 receptor (Homo sapiens, UniProt P25101); assay: In vitro binding affinity in a radioligand binding experiment by competition with [125I]-labeled endothelin-1 for ETA receptor
T2 sequence (P25101 whole entry): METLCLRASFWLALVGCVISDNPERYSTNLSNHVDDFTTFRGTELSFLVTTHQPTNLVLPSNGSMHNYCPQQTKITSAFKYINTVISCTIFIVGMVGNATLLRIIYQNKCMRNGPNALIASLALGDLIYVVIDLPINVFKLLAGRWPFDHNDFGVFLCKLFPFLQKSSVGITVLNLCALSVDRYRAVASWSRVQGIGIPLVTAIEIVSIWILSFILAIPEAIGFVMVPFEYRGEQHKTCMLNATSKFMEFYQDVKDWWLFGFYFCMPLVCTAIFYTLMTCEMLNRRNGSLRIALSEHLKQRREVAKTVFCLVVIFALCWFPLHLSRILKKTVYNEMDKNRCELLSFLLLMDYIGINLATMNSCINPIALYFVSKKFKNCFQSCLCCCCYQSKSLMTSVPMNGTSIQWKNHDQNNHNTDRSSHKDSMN

[2] = molecular target: T3, Endothelin receptor type B (Homo sapiens) (UniProt P24530); assay: Percent inhibition against ETB receptor binding at a concentration of 100 uM
T3 sequence (whole entry): T1 sequence (P24530 whole entry)

IC50 [1] [µM] | IC50 (Endothelin-1 receptor) [µM] | inhibition [2] [%] | SMILES
48.7 | 6.14 |  | Cc1noc(NS(=O)(=O)c2ccsc2C(=O)Oc2ccc3c(c2)OCO3)c1C
> 100 | 1.06 | < 50 | Cc1noc(NS(=O)(=O)c2ccsc2C(=O)O)c1Cl
> 100 |  | < 50 | Cc1noc(NS(=O)(=O)c2ccsc2C(=O)Oc2ccccc2)c1Cl
> 100 | 0.27 | < 50 | Cc1ccc(OC(=O)c2sccc2S(=O)(=O)Nc2onc(C)c2C)c(C)c1
> 100 | 0.148 | < 50 | Cc1noc(NS(=O)(=O)c2ccsc2C(=O)Nc2ccccc2)c1Cl
> 100 | 6.06 | < 50 | Cc1noc(NS(=O)(=O)c2ccsc2C(=O)O)c1C
> 100 | 10.2 | < 50 | Cc1noc(NS(=O)(=O)c2ccsc2C(=O)O)c1Br
> 100 | 0.55 | < 50 | Cc1noc(NS(=O)(=O)c2ccsc2C(=O)Nc2ccccc2)c1C
> 100 |  | < 50 | Cc1ccc(OC(=O)c2sccc2S(=O)(=O)Nc2onc(C)c2Cl)cc1
> 100 |  | < 50 | Cc1cccc(OC(=O)c2sccc2S(=O)(=O)Nc2onc(C)c2Br)c1
9.21 | 0.0093 |  | Cc1ccc(OC(=O)c2sccc2S(=O)(=O)Nc2onc(C)c2Br)cc1
> 100 | 3.47 | < 50 | COC(=O)c1sccc1S(=O)(=O)Nc1onc(C)c1C
> 100 |  | < 50 | Cc1ccccc1OC(=O)c1sccc1S(=O)(=O)Nc1onc(C)c1Br
> 100 | 0.74 | < 50 | COC(=O)c1sccc1S(=O)(=O)Nc1onc(C)c1Br
> 100 | 4.12 | < 50 | Cc1noc(NS(=O)(=O)c2ccsc2C(=O)Oc2ccccc2)c1C
> 100 | 1.09 | < 50 | COC(=O)c1sccc1S(=O)(=O)Nc1onc(C)c1Cl
> 100 |  | < 50 | Cc1noc(NS(=O)(=O)c2ccsc2C(=O)Oc2ccccc2)c1Br
> 100 | 2.52 | < 50 | Cc1ccc(OC(=O)c2sccc2S(=O)(=O)Nc2onc(C)c2C)cc1
7.94 | 0.0083 |  | Cc1noc(NS(=O)(=O)c2ccsc2C(=O)Oc2ccc3c(c2)OCO3)c1Cl
5.74 | 0.0089 |  | Cc1noc(NS(=O)(=O)c2ccsc2C(=O)Oc2ccc3c(c2)OCO3)c1Br

From ChEMBL document CHEMBL1130505, “2-Aryloxycarbonylthiophene-3-sulfonamides: Highly potent and etA selective endothelin receptor antagonists” (Bioorg Med Chem Lett, 1997)
